Measurements reported in patent US20250114369A1, “COMPOUNDS AND METHODS FOR TREATMENT OF VIRAL INFECTIONS” (Gilead Sciences, Inc., priority 2023, published 2025).
≈ marks a conversion by molar mass, not a printed value.

How the values were obtained:
[1] = test system: Respiratory syncytial virus recombinant with luciferase (RSV-Luc5); test: microbe, parasite or virus in culture; format: cell-based; conditions: human respiratory syncytial virus, NHBE, 72 h, read-out: RSV NHBE EC50 (nM)
[2] = test system: SARS Coronavirus 2 recombinant with NanoLuc (SARS-CoV2-NLuc); test: organism not typed; format: cell-based; conditions: 48 h
[3] = physchem; format: physicochemical; conditions: pH 7, aqueous buffer, thermodynamic from solid
Protocol: The aqueous solubility of compounds over a time of 24 hours was assessed. Solubility was determined at ambient temperature in a 50 mM phosphate buffered pH7 solution with 150 mM NaCl (to achieve isotonicity). Solids were added to the buffered solution in 1.5-mL Eppendorf tubes, vortexed for 1 minute, then agitated for 24 hours in an Eppendorf ThermoMixer C. To determine concentration in solution, the suspensions were centrifuged for 15 min at 15,000 rpm. Supernatants were diluted to a volume of 1 mL with 30:70 v/v acetonitrile:water. All diluted supernatants were analyzed by UPLC using a Waters Acquity UPLC with a PDA UV detector.

[4] = in vitro; format: cell-based; conditions: human
[5] = in vitro; format: in vitro ADME; conditions: human, s9, pH 7.4
[6] = in vitro; format: in vitro ADME; conditions: human, s9, pH 7.4; remark: listed apart in the source
Procedure, shortened: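 Intestinal S9 stability: compounds at 2 μM final in PMSF-free intestinal S9 (1.0 mg/mL protein, 100 mM PBS pH 7.4), duplicates, GS-7340 as positive control substrate. Samples at 0, 10, 20, 30, 60 and 120 min quenched; analyte quantified by LC-MS (Q-Exactive) as analyte/internal standard peak area ratio.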

[7] = test system: Caco-2 cells (clone C2BBel); test: CACO-2 permeability; format: in vitro ADME; conditions: donor pH 6.5, receiver pH 7.4
[8] = format: in vitro ADME; conditions: 2 μM
Procedure, shortened: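 Compound added to duplicate plasma aliquots at 37 °C to 2 μM final; sampled at 0.05, 0.5, 1, 2, 3 and 4 hr and quenched with internal-standard solution. Remaining compound quantified by analyte/internal standard peak area ratio by LC-HRMS (Q-Exactive, 5 ppm mass tolerance).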
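Wherever CC50 is given: uninfected MT-4 cells over 4-5 days by CellTiter-Glo.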

CCOC(=O)c1cccn1C(=O)OC[C@H]1O[C@@](C#N)(c2ccc3c(N)ncnn23)[C@H](OC(C)=O)[C@@H]1OC(C)=O [Compound 20, O1-[[(2R,3R,4R,5R)-3,4-diacetoxy-5-(4-aminopyrrolo[2,1-f][1,2,4]triazin-7-yl)-5-cyano-tetrahydrofuran-2-yl]methyl]O2-ethyl pyrrole-1,2-dicarboxylate]
EC50 [1]: 731 nM
EC50 [2]: 4.28 µM
solubility thermodynamic at 24 h [3]: 10 µg/mL (≈ 18.5 µM)
CC50 [4]: > 50 µM
half-life at 2 μM [5]: ≤ 120 s
half-life at 2 μM [6]: 37.6 s
DM Caco2 A to B ([7]; forward (A to B)): 3.16
DM Caco2 B to A ([7]; reverse (B to A)): 9.63
STA Human Plasma 37 [8]: 67.544
